# Patent US9028845B2, “Chimeric immunomodulatory compounds and methods of using the same-IV” (Dynavax Technologies Corporation, priority 2001, dated 2015)
# “Also recorded” adds a separate entry of the source.
# Assays:
# [1] = test system: CD19+ B cells; test: Human B cell proliferation assay (3H-thymidine incorporation); settings: for cpm1 / cpm2 / cpm3 / mean cpm / mean of both: B cells, 2 μg/ml, Experiment B; for mean of both: mean of donors 121 and 194; for B cell proliferation (FIG. 11), in words: purified human B cells, 5 μg/ml, 96 h
# [2] = test system: human PBMCs; test: Human PBMC cytokine response assay (IFN-γ and IFN-α in cell-free medium by ELISA), with or without cPLGA;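 as to IFN-α (pg/ml) mean: 20 µg/mL compound for 24 hours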;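 as to IFN-γ (pg/ml) mean: 20 µg/mL compound for 24 hours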; format: cell-based; settings: for IFN-α induction (FIG. 10), in words: PBMCs from 8 donors; for IFN-γ (pg/ml) 28065: donor 28065 (high background), 1000 = outside assay limits; for IFN-α (pg/ml) 28065: donor 28065; for IFN-α (pg/ml) 28066 / IFN-γ (pg/ml) 28066: donor 28066; for IFN-α (pg/ml) 28067 / IFN-γ (pg/ml) 28067: donor 28067; for IFN-α (pg/ml) 28068 / IFN-γ (pg/ml) 28068: donor 28068
# [3] = Table 24, mean of donors 28234-28237
# [4] = Table 25, mean of donors 28250-28253
# [5] = mean of donors 110, 112, 119, 120, Table 14
# [6] = mean of donors 28185-28188, Table 15
# [7] = mean of donors 28218-28221, 20 μg/ml, 24 h
# [8] = 20 ug/ml, 24 h, + PLGA = premixed with 100 μg/ml cPLGA
# [9] = mean of donors 28065-28068, 20 ug/ml, 24 h, + PLGA = premixed with 100 μg/ml cPLGA
substance,measurement,setting,value
(5′-TCGTCGA-3′-HEG)2-glycerol-HEG-5′-TCGTCGA-3′ [Compound C-94],cpm1,[1]; donor 121,11418 cpm
same,cpm2,[1]; donor 121,14406 cpm
same,cpm3,[1]; donor 121,11110 cpm
same,mean cpm,[1]; donor 121 mean,12311 cpm
same,cpm1,[1]; donor 194,7361 cpm
same,cpm2,[1]; donor 194,8505 cpm
same,cpm3,[1]; donor 194,5349 cpm
same,mean cpm,[1]; donor 194 mean,7072 cpm
same,mean of both,[1],9692 cpm
same,"B cell proliferation (FIG. 11), in words",[1],induce B cells to proliferate
same,"IFN-α induction (FIG. 10), in words","[2]; 20 μg/ml, 24 h",induce high levels of IFN-α
same,IFN-α,"[2]; Table 11, donor 28042",302 pg/mL
same,IFN-γ,"[2]; Table 11, donor 28042",443 pg/mL
same,IFN-α,"[2]; Table 11, donor 28043",252 pg/mL
same,IFN-γ,"[2]; Table 11, donor 28043",198 pg/mL
same,IFN-α,"[2]; Table 11, donor 28044",664 pg/mL
same,IFN-γ,"[2]; Table 11, donor 28044",1417 pg/mL
same,IFN-α,"[2]; Table 11, donor 28045",1855 pg/mL
same,IFN-γ,"[2]; Table 11, donor 28045",888 pg/mL
same,IFN-α mean,"[2]; Table 11, mean of donors",768 pg/mL
same,IFN-γ mean,"[2]; Table 11, mean of donors",736 pg/mL
same,IFN-α,"[2]; Table 24, donor 28234",16 pg/mL
same,IFN-γ,"[2]; Table 24, donor 28234",7 pg/mL
same,IFN-α,"[2]; Table 24, donor 28235",118 pg/mL
same,IFN-γ,"[2]; Table 24, donor 28235",161 pg/mL
same,IFN-α,"[2]; Table 24, donor 28236",548 pg/mL
same,IFN-γ,"[2]; Table 24, donor 28236",239 pg/mL
same,IFN-α,"[2]; Table 24, donor 28237",3631 pg/mL
same,IFN-γ,"[2]; Table 24, donor 28237",1116 pg/mL
same,IFN-α mean,[2]; [3],1078 pg/mL
same,IFN-γ mean,[2]; [3],381 pg/mL
same,IFN-a,"[2]; Table 25, donor 28250",245 pg/mL
same,IFN-g,"[2]; Table 25, donor 28250, polynucleotides/spacers at amounts equivalent to the CIC, spacers alone 9 uM",340 pg/mL
same,IFN-a,"[2]; Table 25, donor 28251",645 pg/mL
same,IFN-g,"[2]; Table 25, donor 28251",60 pg/mL
same,IFN-a,"[2]; Table 25, donor 28252",323 pg/mL
same,IFN-g,"[2]; Table 25, donor 28252",287 pg/mL
same,IFN-a,"[2]; Table 25, donor 28253",1198 pg/mL
same,IFN-g,"[2]; Table 25, donor 28253",128 pg/mL
same,IFN-a mean,[2]; [4],603 pg/mL
same,IFN-g mean,[2]; [4],204 pg/mL
same,IFN-α induced relative to linear CIC C-21,[2]; branched vs linear CIC with the same nucleic acid moieties,4 fold
same,IFN-α,"[2]; donor 110, Table 14",1608 pg/mL
same,IFN-γ,"[2]; donor 110, Table 14",5168 pg/mL
same,IFN-α,"[2]; donor 112, Table 14",144 pg/mL
same,IFN-γ,"[2]; donor 112, Table 14",284 pg/mL
same,IFN-α,"[2]; donor 119, Table 14",2610 pg/mL
same,IFN-γ,"[2]; donor 119, Table 14",104 pg/mL
same,IFN-α,"[2]; donor 120, Table 14",878 pg/mL
same,IFN-γ,"[2]; donor 120, Table 14",120 pg/mL
same,IFN-a,"[2]; donor 28185, Table 15",1895 pg/mL
same,IFN-g,"[2]; donor 28185, Table 15",181 pg/mL
same,IFN-a,"[2]; donor 28186, Table 15",239 pg/mL
same,IFN-g,"[2]; donor 28186, Table 15",61 pg/mL
same,IFN-a,"[2]; donor 28187, Table 15",136 pg/mL
same,IFN-g,"[2]; donor 28187, Table 15",384 pg/mL
same,IFN-a,"[2]; donor 28188, Table 15",13 pg/mL
same,IFN-g,"[2]; donor 28188, Table 15",17 pg/mL
same,IFN-a (pg/ml) 28218,"[2]; donor 28218, 20 μg/ml, 24 h",32 pg/mL
same,IFN-g (pg/ml) 28218,"[2]; donor 28218, 20 μg/ml, 24 h",15 pg/mL
same,IFN-a (pg/ml) 28219,"[2]; donor 28219, 20 μg/ml, 24 h",167 pg/mL
same,IFN-g (pg/ml) 28219,"[2]; donor 28219, 20 μg/ml, 24 h",39 pg/mL
same,IFN-a (pg/ml) 28220,"[2]; donor 28220, 20 μg/ml, 24 h",633 pg/mL
same,IFN-g (pg/ml) 28220,"[2]; donor 28220, 20 μg/ml, 24 h",44 pg/mL
same,IFN-a (pg/ml) 28221,"[2]; donor 28221, 20 μg/ml, 24 h",412 pg/mL
same,IFN-g (pg/ml) 28221,"[2]; donor 28221, 20 μg/ml, 24 h",269 pg/mL
same,IFN-α (pg/ml) mean,[2]; [5],1310 pg/mL
same,IFN-γ (pg/ml) mean,[2]; [5],1419 pg/mL
same,IFN-a (pg/ml) mean,[2]; [6],571 pg/mL
same,IFN-g (pg/ml) mean,[2]; [6],161 pg/mL
same,IFN-a (pg/ml) mean,[2]; [7],311 pg/mL
same,IFN-g (pg/ml) mean,[2]; [7],92 pg/mL
same,IFN-a (pg/ml) ×2,"[2]; mean ×2, Table 15",1142 pg/mL
same,IFN-g (pg/ml) ×4,"[2]; mean ×4, Table 15",644 pg/mL
same,"IFN-α induction, in words",[2]; used alone,dramatically higher; also recorded: induced more IFN-α relative to linear CICs with HEG spacers; also recorded: HEG (C-94)>TEG (C-103)>C3 (C-104)=no linker (C-28)
(5′-TCGTCGT-3′-HEG)2-glycerol-HEG-5′-TCGTCGT-3′ [Compound C-142],"B cell proliferation (FIG. 11), in words",[1],induce B cells to proliferate
same,"IFN-α induction (FIG. 10), in words","[2]; 20 μg/ml, 24 h",induce high levels of IFN-α
5′-TCGTCG-3′-HME-5′-ACGTTCG-3′-HME-5′-AGATGAT-3′ [Compound C-25],cpm1,[1]; donor 121,34360 cpm
same,cpm2,[1]; donor 121,35016 cpm
same,cpm3,[1]; donor 121,26480 cpm
same,mean cpm,[1]; donor 121 mean,31952 cpm
same,cpm1,[1]; donor 194,16060 cpm
same,cpm2,[1]; donor 194,19509 cpm
same,cpm3,[1]; donor 194,17384 cpm
same,mean cpm,[1]; donor 194 mean,17651 cpm
same,mean of both,[1],24802 cpm
same,IFN-γ (pg/ml) 28065,[2]; [8],541 pg/mL
same,IFN-α (pg/ml) 28065,[2]; [8],11 pg/mL
same,IFN-α (pg/ml) 28066,[2]; [8],0 pg/mL
same,IFN-γ (pg/ml) 28066,[2]; [8],6 pg/mL
same,IFN-α (pg/ml) 28067,[2]; [8],22 pg/mL
same,IFN-γ (pg/ml) 28067,[2]; [8],19 pg/mL
same,IFN-α (pg/ml) 28068,[2]; [8],79 pg/mL
same,IFN-γ (pg/ml) 28068,[2]; [8],337 pg/mL
same,IFN-α (pg/ml) mean,[2]; [9],28 pg/mL
same,IFN-γ (pg/ml) mean,[2]; [9],226 pg/mL
5′-TCGTCG-3′-abasic-5′-ACGTTCG-3′-abasic-5′-AGATGAT-3′ [Compound C-20],cpm1,[1]; donor 121,31276 cpm
same,cpm2,[1]; donor 121,30851 cpm
same,cpm3,[1]; donor 121,28532 cpm
same,mean cpm,[1]; donor 121 mean,30220 cpm
same,cpm1,[1]; donor 194,18082 cpm
same,cpm2,[1]; donor 194,18705 cpm
same,cpm3,[1]; donor 194,17481 cpm
same,mean cpm,[1]; donor 194 mean,18089 cpm
same,mean of both,[1],24155 cpm
same,IFN-γ (pg/ml) 28065,[2]; [8],354 pg/mL
same,IFN-α (pg/ml) 28065,[2]; [8],21 pg/mL
same,IFN-α (pg/ml) 28066,[2]; [8],5 pg/mL
same,IFN-γ (pg/ml) 28066,[2]; [8],13 pg/mL
same,IFN-α (pg/ml) 28067,[2]; [8],13 pg/mL
same,IFN-γ (pg/ml) 28067,[2]; [8],16 pg/mL
same,IFN-α (pg/ml) 28068,[2]; [8],64 pg/mL
same,IFN-γ (pg/ml) 28068,[2]; [8],505 pg/mL
same,IFN-α (pg/ml) mean,[2]; [9],26 pg/mL
same,IFN-γ (pg/ml) mean,[2]; [9],222 pg/mL
